From PubChem BioAssay (NCI)
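Five concentrations, 48 hours, 96-well plates. The concentration for 50% growth inhibition is given as GI50. TGI: concentration producing complete growth inhibition.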

Assays:
Assay in all cases: NCI anticancer screen, dose series, 48 h
[1] = system: 786-0 renal
[2] = system: A549 NSCLC
[3] = system: ACHN renal
[4] = system: BT-549 breast
[5] = system: CAKI-1 renal
[6] = system: CCRF-CEM leukemia
[7] = system: COLO 205 colon
[8] = system: DU-145 prostate
[9] = system: EKVX NSCLC
[10] = system: HCC-2998 colon
[11] = system: HCT-116 colon
[12] = system: HCT-15 colon
[13] = system: HOP-62 NSCLC
[14] = system: HOP-92 NSCLC
[15] = system: HS 578T breast
[16] = system: HT29 colon
[17] = system: IGROV1 ovarian
[18] = system: K-562 leukemia
[19] = system: KM12 colon
[20] = system: LOX IMVI melanoma
[21] = system: MALME-3M melanoma
[22] = system: MCF7 breast
[23] = system: MDA-MB-231 breast
[24] = system: MDA-MB-435
[25] = system: MOLT-4 leukemia
[26] = system: NCI-H226 lung
[27] = system: NCI-H23 lung
[28] = system: NCI-H460 lung
[29] = system: NCI-H522 lung
[30] = system: NCI/ADR-RES ovarian
[31] = system: OVCAR-3 ovarian
[32] = system: OVCAR-4 ovarian
[33] = system: OVCAR-5 ovarian
[34] = system: OVCAR-8 ovarian
[35] = system: PC-3 prostate
[36] = system: RPMI-8226 leukemia
[37] = system: RXF 393 renal
[38] = system: SF-268 CNS
[39] = system: SF-295 CNS
[40] = system: SF-539 CNS
[41] = system: SK-MEL-2 melanoma
[42] = system: SK-MEL-28 melanoma
[43] = system: SK-MEL-5 melanoma
[44] = system: SK-OV-3 ovarian
[45] = system: SN12C renal
[46] = system: SNB-19 CNS
[47] = system: SW-620 colon
[48] = system: T-47D breast
[49] = system: TK-10 renal
[50] = system: U251 CNS
[51] = system: UACC-257 melanoma
[52] = system: UACC-62 melanoma
[53] = system: UO-31 renal
[54] = system: A498 renal
[55] = system: HL-60(TB) leukemia
[56] = system: M14 melanoma
[57] = system: SNB-75 CNS
[58] = system: SR leukemia

SMILES: O=C(CN(/C=C/C(=O)C(F)(F)F)c1ccc(Cl)cc1)c1ccc(F)cc1
- GI50 [1]: 18 µM
- TGI [1]: 42.3 µM
- GI50 [2]: 18.7 µM
- TGI [2]: 81.1 µM
- GI50 [3]: 4.17 µM
- TGI [3]: 27 µM
- GI50 [4]: 15.1 µM
- TGI [4]: 35.3 µM
- GI50 [5]: 10.4 µM
- TGI [5]: 32.7 µM
- GI50 [6]: 3.39 µM
- TGI [6]: 19.8 µM
- GI50 [7]: 17.2 µM
- TGI [7]: 46.5 µM
- GI50 [8]: 16.1 µM
- TGI [8]: 40.8 µM
- GI50 [9]: 19.2 µM
- TGI [9]: 43.6 µM
- GI50 [10]: 12.9 µM
- TGI [10]: 25.7 µM
- GI50 [11]: 14.5 µM
- TGI [11]: 52.3 µM
- GI50 [12]: 4.21 µM
- TGI [12]: 21.4 µM
- GI50 [13]: 30.3 µM
- TGI [13]: > 100 µM
- GI50 [14]: 18 µM
- TGI [14]: 36.8 µM
- GI50 [15]: 4.95 µM
- TGI [15]: 9.71 µM
- GI50 [16]: 17.9 µM
- TGI [16]: > 100 µM
- GI50 [17]: 12.5 µM
- TGI [17]: 26.2 µM
- GI50 [18]: 2.69 µM
- TGI [18]: 22.2 µM
- GI50 [19]: 5.61 µM
- TGI [19]: 22.7 µM
- GI50 [20]: 0.736 µM
- TGI [20]: 16.9 µM
- GI50 [21]: 13.7 µM
- TGI [21]: 28.9 µM
- GI50 [22]: 14 µM
- TGI [22]: 33.2 µM
- GI50 [23]: 14.2 µM
- TGI [23]: 27.3 µM
- GI50 [24]: 12.1 µM
- TGI [24]: 32.3 µM
- GI50 [25]: 5.59 µM
- TGI [25]: 28.4 µM
- GI50 [26]: 16.2 µM
- TGI [26]: 30.7 µM
- GI50 [27]: 12.9 µM
- TGI [27]: 26.2 µM
- GI50 [28]: 11.9 µM
- TGI [28]: 26.3 µM
- GI50 [29]: 3.6 µM
- TGI [29]: 17.4 µM
- GI50 [30]: 14.4 µM
- TGI [30]: 31.7 µM
- GI50 [31]: 13 µM
- TGI [31]: 28.2 µM
- GI50 [32]: 15.5 µM
- TGI [32]: 38 µM
- GI50 [33]: 23.6 µM
- TGI [33]: 53.5 µM
- GI50 [34]: 15.2 µM
- TGI [34]: 38.4 µM
- GI50 [35]: 11.8 µM
- TGI [35]: 25.9 µM
- GI50 [36]: 10.1 µM
- TGI [36]: 51.3 µM
- GI50 [37]: 42.9 µM
- TGI [37]: > 100 µM
- GI50 [38]: 12.3 µM
- TGI [38]: 30 µM
- GI50 [39]: 15.2 µM
- TGI [39]: 34.1 µM
- GI50 [40]: 18.9 µM
- TGI [40]: 37.6 µM
- GI50 [41]: 8.75 µM
- TGI [41]: 21.4 µM
- GI50 [42]: 16.5 µM
- TGI [42]: 36.4 µM
- GI50 [43]: 14.6 µM
- TGI [43]: 27.8 µM
- GI50 [44]: 31.5 µM
- TGI [44]: 91.1 µM
- GI50 [45]: 16.1 µM
- TGI [45]: 29.6 µM
- GI50 [46]: 16.2 µM
- TGI [46]: 34.2 µM
- GI50 [47]: 15.1 µM
- TGI [47]: 32.7 µM
- GI50 [48]: 14.9 µM
- TGI [48]: > 100 µM
- GI50 [49]: 18.9 µM
- TGI [49]: 74 µM
- GI50 [50]: 11 µM
- TGI [50]: 23 µM
- GI50 [51]: 12.8 µM
- TGI [51]: 29.9 µM
- GI50 [52]: 3.04 µM
- TGI [52]: 15.2 µM
- GI50 [53]: 10.9 µM
- TGI [53]: 23.3 µM

SMILES: COc1ccc(/C=C/C2C(C#N)=C(N)OC3=C2C(=O)CCC3)cc1 (centres undefined)
- GI50 [54]: 22.6 µM
- TGI [54]: 41 µM
- GI50 [2]: 32.4 µM
- TGI [2]: 97 µM
- GI50 [3]: 17.7 µM
- TGI [3]: 33.7 µM
- GI50 [4]: 31.9 µM
- TGI [4]: > 100 µM
- GI50 [5]: 40.8 µM
- TGI [5]: 97.3 µM
- GI50 [6]: 4.05 µM
- TGI [6]: 16.6 µM
- GI50 [7]: 21.1 µM
- TGI [7]: 41.2 µM
- GI50 [8]: 15.9 µM
- TGI [8]: 33.7 µM
- GI50 [9]: 38 µM
- TGI [9]: > 100 µM
- GI50 [10]: 18.2 µM
- TGI [10]: 32.9 µM
- GI50 [11]: 7.39 µM
- TGI [11]: 20 µM
- GI50 [12]: 21.4 µM
- TGI [12]: > 100 µM
- GI50 [55]: 5.28 µM
- TGI [55]: 63.2 µM
- GI50 [13]: 29.6 µM
- TGI [13]: 62.7 µM
- GI50 [14]: 23.6 µM
- TGI [14]: 46.9 µM
- GI50 [15]: 63 µM
- TGI [15]: > 100 µM
- GI50 [16]: 7.9 µM
- TGI [16]: 20.2 µM
- GI50 [17]: 22 µM
- TGI [17]: 41.3 µM
- GI50 [18]: 24.4 µM
- TGI [18]: > 100 µM
- GI50 [19]: 13.5 µM
- TGI [19]: 28.6 µM
- GI50 [20]: 11.4 µM
- TGI [20]: 23.4 µM
- GI50 [56]: 20.8 µM
- TGI [56]: 49.6 µM
- GI50 [21]: 31.9 µM
- TGI [21]: 87.1 µM
- GI50 [22]: 12.1 µM
- TGI [22]: 26.4 µM
- GI50 [23]: 2.54 µM
- TGI [23]: 8.79 µM
- GI50 [24]: 18.4 µM
- TGI [24]: 61.3 µM
- GI50 [25]: 4.23 µM
- TGI [25]: 19.7 µM
- GI50 [26]: 15 µM
- TGI [26]: 34 µM
- GI50 [27]: 20.1 µM
- TGI [27]: 47.7 µM
- GI50 [28]: 16.9 µM
- TGI [28]: 35 µM
- GI50 [29]: 18.3 µM
- TGI [29]: 38.9 µM
- GI50 [30]: 33.9 µM
- TGI [30]: > 100 µM
- GI50 [31]: 34 µM
- TGI [31]: > 100 µM
- GI50 [32]: 22.8 µM
- TGI [32]: 66.5 µM
- GI50 [33]: 18.8 µM
- TGI [33]: 34.5 µM
- GI50 [34]: 21.2 µM
- TGI [34]: > 100 µM
- GI50 [36]: 2.14 µM
- TGI [36]: 5.18 µM
- GI50 [37]: 18.7 µM
- TGI [37]: 35.9 µM
- GI50 [38]: 13.8 µM
- TGI [38]: 30.5 µM
- GI50 [39]: 21.5 µM
- TGI [39]: 50.1 µM
- GI50 [40]: 31.3 µM
- TGI [40]: 80.1 µM
- GI50 [41]: 38.5 µM
- TGI [41]: > 100 µM
- GI50 [42]: 17.9 µM
- TGI [42]: 35.3 µM
- GI50 [43]: 18.1 µM
- TGI [43]: 32.8 µM
- GI50 [44]: 25.1 µM
- TGI [44]: 77.6 µM
- GI50 [46]: 19.8 µM
- TGI [46]: 43.1 µM
- GI50 [57]: 19.9 µM
- TGI [57]: 37.4 µM
- GI50 [58]: 2.71 µM
- TGI [58]: 16 µM
- GI50 [47]: 29.7 µM
- TGI [47]: > 100 µM
- GI50 [48]: 29.4 µM
- TGI [48]: > 100 µM
- GI50 [49]: 26.9 µM
- TGI [49]: 63.8 µM
- GI50 [50]: 12.5 µM
- TGI [50]: 25 µM
- GI50 [51]: 23 µM
- TGI [51]: 49.5 µM
- GI50 [53]: 18.2 µM
- TGI [53]: 33.1 µM
